In ChEMBL document CHEMBL1135278, “Thiophene derivatives: a new series of potent norepinephrine and serotonin reuptake inhibitors” (Bioorg Med Chem Lett, 2002):
pKi: −log10 of the molar value.

Tests used:
[1] = target: Sodium-dependent dopamine transporter (Rattus norvegicus, UniProt P23977); experiment: Inhibition of [3H]DA reuptake at dopamine transporter in rat striatum; type: tissue-based
[2] = target: Norepinephrine transporter (Rattus norvegicus, UniProt Q9WTR4); experiment: Inhibition of [3H]-NE reuptake at Norepinephrine transporter in rat parietal/occipital cortex
[3] = target: Sodium-dependent serotonin transporter (Rattus norvegicus, UniProt P31652); experiment: Inhibition of [3H]5-HT reuptake at serotonin transporter in rat mid brain
[4] = target: Monoamine transporters; Norepinephrine & serotonin (Rattus norvegicus) (UniProt P31652+Q9WTR4); experiment: Relative reuptake inhibition at norepinephrine and serotonin transporters; type: protein assay

Sequence of Norepinephrine transporter (Q9WTR4 whole entry): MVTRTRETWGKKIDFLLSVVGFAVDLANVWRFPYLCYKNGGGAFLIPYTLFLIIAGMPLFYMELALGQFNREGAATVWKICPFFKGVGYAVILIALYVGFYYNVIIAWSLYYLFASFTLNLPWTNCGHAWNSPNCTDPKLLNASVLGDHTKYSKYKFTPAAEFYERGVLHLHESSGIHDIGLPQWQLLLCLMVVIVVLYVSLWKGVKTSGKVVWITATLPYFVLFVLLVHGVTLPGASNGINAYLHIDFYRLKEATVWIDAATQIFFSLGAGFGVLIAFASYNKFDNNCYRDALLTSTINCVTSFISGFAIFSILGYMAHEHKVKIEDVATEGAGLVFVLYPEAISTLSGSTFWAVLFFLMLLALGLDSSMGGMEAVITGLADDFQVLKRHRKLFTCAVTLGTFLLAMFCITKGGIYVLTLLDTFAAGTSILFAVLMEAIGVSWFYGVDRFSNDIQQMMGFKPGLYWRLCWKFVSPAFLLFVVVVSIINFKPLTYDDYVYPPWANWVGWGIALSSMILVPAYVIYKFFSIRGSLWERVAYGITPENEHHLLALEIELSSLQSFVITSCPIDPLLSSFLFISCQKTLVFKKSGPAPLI
Sequence of Sodium-dependent dopamine transporter (P23977 whole entry): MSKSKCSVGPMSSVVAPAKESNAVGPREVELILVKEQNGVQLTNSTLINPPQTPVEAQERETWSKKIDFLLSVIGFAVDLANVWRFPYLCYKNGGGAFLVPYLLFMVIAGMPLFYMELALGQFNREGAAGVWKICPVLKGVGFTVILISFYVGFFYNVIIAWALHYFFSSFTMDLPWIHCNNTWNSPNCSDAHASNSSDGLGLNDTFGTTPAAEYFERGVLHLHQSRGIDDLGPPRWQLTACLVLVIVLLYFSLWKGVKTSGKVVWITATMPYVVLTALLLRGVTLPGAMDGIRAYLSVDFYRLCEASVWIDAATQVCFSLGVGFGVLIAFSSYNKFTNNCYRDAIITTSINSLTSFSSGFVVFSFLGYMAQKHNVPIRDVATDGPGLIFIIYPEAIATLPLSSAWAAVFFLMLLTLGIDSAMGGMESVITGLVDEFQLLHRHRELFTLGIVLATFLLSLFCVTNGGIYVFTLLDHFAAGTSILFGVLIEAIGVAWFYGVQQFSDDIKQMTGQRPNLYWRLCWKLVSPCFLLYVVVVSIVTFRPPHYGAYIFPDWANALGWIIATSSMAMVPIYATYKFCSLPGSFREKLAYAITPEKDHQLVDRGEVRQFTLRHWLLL
Sequence of Sodium-dependent serotonin transporter (P31652 whole entry): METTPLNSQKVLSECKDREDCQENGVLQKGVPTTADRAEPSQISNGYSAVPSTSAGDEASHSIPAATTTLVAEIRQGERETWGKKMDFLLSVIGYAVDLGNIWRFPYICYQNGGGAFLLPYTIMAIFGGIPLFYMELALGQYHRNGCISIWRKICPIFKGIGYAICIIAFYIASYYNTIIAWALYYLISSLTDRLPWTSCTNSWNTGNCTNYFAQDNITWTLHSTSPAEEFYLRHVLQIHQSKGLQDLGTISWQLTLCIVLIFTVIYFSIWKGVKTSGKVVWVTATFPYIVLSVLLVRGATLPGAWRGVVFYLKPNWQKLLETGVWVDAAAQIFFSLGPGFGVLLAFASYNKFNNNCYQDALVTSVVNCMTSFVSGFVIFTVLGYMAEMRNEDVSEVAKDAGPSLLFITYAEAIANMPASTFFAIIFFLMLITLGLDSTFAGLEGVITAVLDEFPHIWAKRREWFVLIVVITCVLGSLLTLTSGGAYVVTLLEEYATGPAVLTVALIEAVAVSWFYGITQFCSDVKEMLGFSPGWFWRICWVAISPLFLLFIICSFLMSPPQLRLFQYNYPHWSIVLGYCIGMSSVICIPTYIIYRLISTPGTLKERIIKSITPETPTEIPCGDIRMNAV

Row | Compound | pKi [1] | pKi [2] | pKi [3] | Ratio [4]
1 | COC(=O)C1C2CC3CCC1N3C/C2=C\c1ccc(I)s1 (stereo unspecified) | 6.43 | 8.30 | 7.54 | –
2 | COC(=O)C1C2CC3CCC1N3C/C2=C\c1cccs1 (stereo unspecified) | 6.57 | 7.58 | 5.69 | –
3 | O=C(OCC1C2CC3CCC1N3C/C2=C\c1ccc(I)c(Cl)c1)c1ccccc1 (stereo unspecified) | – | – | 10.22 | –
4 | COC(=O)C1C2CC3CCC1N3C/C2=C\c1ccc(C)s1 (stereo unspecified) | 6.39 | 8.31 | 6.75 | –
5 | CC(C)(C)C(=O)OCC1C2CC3CCC1N3C/C2=C\c1cccs1 (stereo unspecified) | 5.99 | 5.93 | 6.77 | –
6 | CC(C)(C)OC(=O)NCC1C2CC3CCC1N3C/C2=C\c1cccs1 (stereo unspecified) | 5.64 | 5.77 | 5.63 | –
7 | O=C(OCC1C2CC3CCC1N3C/C2=C\c1cccs1)c1ccccc1 (stereo unspecified) | 5.76 | 6.05 | 8.82 | –
8 | O=C(OCC1C2CC3CCC1N3C/C2=C\c1cccs1)c1ccc2ccccc2c1 (stereo unspecified) | 5.78 | 5.91 | 6.77 | –
9 | CC(=O)NCC1C2CC3CCC1N3C/C2=C\c1cccs1 (stereo unspecified) | 5.21 | 5.61 | 4.88 | –
10 | CC(C)OC(=O)C1C2CC3CCC1N3C/C2=C\c1cccs1 (stereo unspecified) | 6.37 | 7.28 | 5.94 | –
11 | OCC1C2CC3CCC1N3C/C2=C\c1cccs1 (stereo unspecified) | ~5.52 | ~6.52 | ~6.00 | 0.3
12 | CC(=O)OCC1C2CC3CCC1N3C/C2=C\c1cccs1 (stereo unspecified) | 6.21 | 6.55 | 5.82 | –
13 | O=C(OCC1C2CC3CCC1N3C/C2=C\c1ccc(I)cc1)c1ccccc1 (stereo unspecified) | – | – | 10.00 | –
